Target: L-type channel CaV1.2 (UniProt P15381)
Sequence (P15381 whole entry, looked up): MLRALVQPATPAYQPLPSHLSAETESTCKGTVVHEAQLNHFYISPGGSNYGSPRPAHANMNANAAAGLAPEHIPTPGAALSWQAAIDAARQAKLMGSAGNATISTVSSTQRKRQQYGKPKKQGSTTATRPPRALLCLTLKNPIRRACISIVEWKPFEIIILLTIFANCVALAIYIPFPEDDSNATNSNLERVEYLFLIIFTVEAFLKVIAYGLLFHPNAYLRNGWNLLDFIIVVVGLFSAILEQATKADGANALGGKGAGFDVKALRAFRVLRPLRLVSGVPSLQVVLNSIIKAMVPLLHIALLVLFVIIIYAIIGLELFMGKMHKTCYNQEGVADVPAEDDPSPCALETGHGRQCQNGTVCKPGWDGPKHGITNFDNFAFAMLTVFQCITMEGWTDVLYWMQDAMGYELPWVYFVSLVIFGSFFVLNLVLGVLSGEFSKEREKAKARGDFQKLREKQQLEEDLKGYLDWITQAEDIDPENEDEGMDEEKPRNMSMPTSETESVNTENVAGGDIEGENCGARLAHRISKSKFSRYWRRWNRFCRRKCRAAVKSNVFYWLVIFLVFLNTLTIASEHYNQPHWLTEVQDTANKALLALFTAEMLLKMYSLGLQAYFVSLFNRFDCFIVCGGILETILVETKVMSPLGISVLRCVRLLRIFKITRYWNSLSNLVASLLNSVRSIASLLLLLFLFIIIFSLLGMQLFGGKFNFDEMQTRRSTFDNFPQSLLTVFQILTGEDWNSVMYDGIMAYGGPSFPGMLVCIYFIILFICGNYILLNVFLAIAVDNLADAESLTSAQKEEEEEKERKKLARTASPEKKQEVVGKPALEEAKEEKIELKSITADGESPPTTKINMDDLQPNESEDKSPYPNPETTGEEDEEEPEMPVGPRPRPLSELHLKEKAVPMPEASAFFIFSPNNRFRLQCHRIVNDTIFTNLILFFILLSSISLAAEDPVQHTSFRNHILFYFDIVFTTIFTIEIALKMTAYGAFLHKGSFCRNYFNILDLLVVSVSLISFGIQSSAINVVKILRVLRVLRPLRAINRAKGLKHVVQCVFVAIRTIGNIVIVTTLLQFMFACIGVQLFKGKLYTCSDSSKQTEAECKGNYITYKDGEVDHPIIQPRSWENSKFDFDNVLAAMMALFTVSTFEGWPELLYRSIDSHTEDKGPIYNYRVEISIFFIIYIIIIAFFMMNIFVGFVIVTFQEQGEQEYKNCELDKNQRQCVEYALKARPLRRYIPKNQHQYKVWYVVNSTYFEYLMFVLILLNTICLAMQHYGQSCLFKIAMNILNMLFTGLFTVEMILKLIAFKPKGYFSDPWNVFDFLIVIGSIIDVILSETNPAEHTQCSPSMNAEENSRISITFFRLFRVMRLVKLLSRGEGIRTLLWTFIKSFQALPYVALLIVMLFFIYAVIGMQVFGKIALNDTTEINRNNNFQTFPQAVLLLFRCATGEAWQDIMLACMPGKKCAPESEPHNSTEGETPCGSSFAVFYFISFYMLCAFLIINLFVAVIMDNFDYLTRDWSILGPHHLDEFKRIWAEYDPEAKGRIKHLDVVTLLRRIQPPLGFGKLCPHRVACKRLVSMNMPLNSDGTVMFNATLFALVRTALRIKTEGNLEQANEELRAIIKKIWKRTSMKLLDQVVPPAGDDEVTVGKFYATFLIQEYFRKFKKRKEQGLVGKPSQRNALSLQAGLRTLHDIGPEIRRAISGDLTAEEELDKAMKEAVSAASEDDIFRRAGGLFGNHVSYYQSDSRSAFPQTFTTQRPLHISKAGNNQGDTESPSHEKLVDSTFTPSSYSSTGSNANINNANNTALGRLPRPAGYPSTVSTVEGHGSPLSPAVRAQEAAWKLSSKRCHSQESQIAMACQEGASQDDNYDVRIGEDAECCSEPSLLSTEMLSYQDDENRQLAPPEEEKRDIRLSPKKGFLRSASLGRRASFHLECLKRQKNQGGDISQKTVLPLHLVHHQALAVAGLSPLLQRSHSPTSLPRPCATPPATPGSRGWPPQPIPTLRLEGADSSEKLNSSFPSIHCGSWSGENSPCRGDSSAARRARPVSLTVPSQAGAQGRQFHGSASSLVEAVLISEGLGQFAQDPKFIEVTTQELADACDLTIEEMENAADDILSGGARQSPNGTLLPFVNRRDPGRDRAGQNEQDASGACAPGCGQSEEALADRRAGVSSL

Compound: COc1ccc2cc1Oc1ccc(cc1)C[C@H]1c3cc(c(OC)cc3CCN1C)Oc1c(OC)c(OC)cc3c1[C@H](C2)N(C)CC3 [TETN, tetrandrine, reference compound]
- L-Activity IC50: 46.80 ± 10.84 µM
